Measured values reported in patent publication US9820967B2 (priority 2014, dated 2017).
“And” between values parts separate entries of the source, which are not always exact repeats. Identical values can stand only once. “Also recorded” adds a separate entry of the source. Like-named read-outs stand apart in the source and are kept apart here.

What was measured:
[1] = system: efflux pump (EPI functionality); test: EPI functionality assays of authentic standard; format: cell-based, Escherichia coli
From the text: Moreover, this “halogenome” appeared to be dominated by brominated metabolites, with only some metabolites (<10) that were additionally chlorinated. […] Relative concentrations of halogenated compounds from clade IV appeared different even within members of the same species, indicative of intraspecies chemical diversity and further subclustering among isolates of the same species (A757, A754, A746, and B149), a phenomenon previously described for P. luteoviolacea strains. […] The presence of 2,3,4-tribromopyrrole was also determined (retention time 20.1 min, major ion m/z 301.7639), which was present in A757, A754, and A746, but not in B149. […]
(§1) To truly be considered an efflux pump inhibitor (EPI), the compound must increase the level of accumulation and decrease the level of extrusion of efflux pump substrates. The fluorescent DNA-binding dye Hoechst 33342 (H33342) a known substrate for RND pumps, is easily detected in the cell, can freely permeate the outer membrane, and can act as a reporter, all allowing for quantification of transport across living cells. Efflux-competent cells extrude H33342 and accumulate dye at a relatively slow rate, resulting in low levels of background fluorescence. Conversely, efflux-defective cells (e.g., presence of EPI) accumulate intracellular levels of H33342 at a higher rate, resulting in fluorescence retention. […]

[2] = system: E. coli mutant AG100A (ΔacrAB), lacking the pump; format: cell-based, Escherichia coli; details: transporter deficient
From the text: (§2) Upon entering the bacterial cell, H33342 becomes fluorescent once bound to the DNA minor groove.
as §1
(§3) For accumulation assays, in efflux-competent cells such as AG100, H33342 would be extruded resulting in low levels of background fluorescence, while the presence of a putative EPI would cause intracellular H33342 accumulation. […] Fluorescence values for wells containing media and compounds only were subtracted from those containing bacteria to control for any background fluorescence due to the presence of test compounds. […]

fungi = details: Tsukamoto et al. (2001); cited from earlier work
[3] = system: E. coli strains overexpressing efflux pumps (AG102, MG1655 ΔBC/pABM, MG1655 ΔBC/pXYM; AcrAB-TolC, MexAB-OprM, MexXY-OprM); format: cell-based, Escherichia coli
From the text: The checkerboard assay was used to determine whether 3,4-dibromopyrrole-2,5-dione potentiates the activity of two fluoroquinolones (ciprofloxacin (CIP) and levofloxacin (LEV)), an aminoglycoside (kanamycin (KAN)), a macrolide (erythromycin (ERY)), two β-lactams (oxacillin (OXA) and piperacillin (PIP)), tetracycline (TET), and chloramphenicol (CHL), known substrates for resistance nodulation cell division pump (RND) transporters, against test strains of multidrug resistant (MDR) E. coli. Interactions between 3,4-dibromopyrrole-2,5-dione and various antibiotics were classified based upon the fractional inhibitory concentration index (FICI), where a FIC of <0.5 is synergistic and indicative of the presence of an efflux pump inhibitor (EPI); 0.5-1 is indifferent; and >1 is antagonistic. […]
Bacterial susceptibility of extracts were tested in duplicate at 1 mg/mL and determined by rapid p-iodonitrotetrazolium chloride colorimetric assay in 96-well microtiter plates in a final volume of 200 μL as previously described (Kuete (2010), Antimicrob. Agents Chemother., 54, 1749-1752). […]
To assess the interaction between different classes of antibiotics and 3,4-dibromopyrrole-2,5-dione, standard checkerboard assays were performed in which the minimum inhibitory concentrations (MICs) of antibiotics were determined in the presence of different concentrations of 3,4-dibromopyrrole-2,5-dione. […]

[4] = target: wild-type E. coli AG100 expressing the AcrAB-TolC pump (Escherichia coli, UniProt P31224); format: cell-based
Sequence of wild-type E. coli AG100 expressing the AcrAB-TolC pump (P31224 whole entry): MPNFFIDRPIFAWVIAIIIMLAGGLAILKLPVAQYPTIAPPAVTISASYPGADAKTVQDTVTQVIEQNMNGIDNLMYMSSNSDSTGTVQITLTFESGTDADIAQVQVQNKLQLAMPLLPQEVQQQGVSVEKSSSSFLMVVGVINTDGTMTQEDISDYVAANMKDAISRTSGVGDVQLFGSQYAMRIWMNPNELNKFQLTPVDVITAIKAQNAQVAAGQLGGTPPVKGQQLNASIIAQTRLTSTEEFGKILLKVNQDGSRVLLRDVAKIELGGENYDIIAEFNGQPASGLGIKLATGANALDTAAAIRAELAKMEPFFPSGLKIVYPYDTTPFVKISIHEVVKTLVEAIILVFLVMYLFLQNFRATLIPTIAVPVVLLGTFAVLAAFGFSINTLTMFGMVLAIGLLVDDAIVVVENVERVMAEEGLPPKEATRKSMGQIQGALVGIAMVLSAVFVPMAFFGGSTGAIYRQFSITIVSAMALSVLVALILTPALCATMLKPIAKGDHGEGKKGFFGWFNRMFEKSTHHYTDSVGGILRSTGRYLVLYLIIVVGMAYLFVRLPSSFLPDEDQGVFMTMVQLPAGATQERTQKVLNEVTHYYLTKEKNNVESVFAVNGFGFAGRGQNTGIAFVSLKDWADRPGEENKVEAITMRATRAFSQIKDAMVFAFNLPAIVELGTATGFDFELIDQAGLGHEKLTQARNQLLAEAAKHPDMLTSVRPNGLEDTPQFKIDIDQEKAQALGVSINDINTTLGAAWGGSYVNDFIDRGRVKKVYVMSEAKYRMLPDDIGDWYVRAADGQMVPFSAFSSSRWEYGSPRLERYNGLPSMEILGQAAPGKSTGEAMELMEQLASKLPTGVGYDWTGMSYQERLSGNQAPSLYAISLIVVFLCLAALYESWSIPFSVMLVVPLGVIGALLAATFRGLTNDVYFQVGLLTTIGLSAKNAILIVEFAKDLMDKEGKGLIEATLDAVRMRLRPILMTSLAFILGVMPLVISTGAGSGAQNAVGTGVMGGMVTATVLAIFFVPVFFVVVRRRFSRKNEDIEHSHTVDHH
Sequence of wild-type E. coli AG100 expressing the AcrAB-TolC pump (P0AE06 25-397, further chain): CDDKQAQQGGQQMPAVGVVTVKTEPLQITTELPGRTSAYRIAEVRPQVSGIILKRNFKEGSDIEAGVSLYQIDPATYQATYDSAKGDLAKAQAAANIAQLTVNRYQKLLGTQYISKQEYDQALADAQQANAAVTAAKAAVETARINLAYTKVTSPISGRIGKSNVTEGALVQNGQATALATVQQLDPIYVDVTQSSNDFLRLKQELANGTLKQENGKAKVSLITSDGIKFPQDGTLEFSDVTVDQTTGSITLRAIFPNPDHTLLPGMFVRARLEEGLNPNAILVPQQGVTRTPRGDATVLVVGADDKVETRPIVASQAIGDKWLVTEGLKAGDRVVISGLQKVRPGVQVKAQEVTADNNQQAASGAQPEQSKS
Sequence of wild-type E. coli AG100 expressing the AcrAB-TolC pump (P02930 23-493, further chain): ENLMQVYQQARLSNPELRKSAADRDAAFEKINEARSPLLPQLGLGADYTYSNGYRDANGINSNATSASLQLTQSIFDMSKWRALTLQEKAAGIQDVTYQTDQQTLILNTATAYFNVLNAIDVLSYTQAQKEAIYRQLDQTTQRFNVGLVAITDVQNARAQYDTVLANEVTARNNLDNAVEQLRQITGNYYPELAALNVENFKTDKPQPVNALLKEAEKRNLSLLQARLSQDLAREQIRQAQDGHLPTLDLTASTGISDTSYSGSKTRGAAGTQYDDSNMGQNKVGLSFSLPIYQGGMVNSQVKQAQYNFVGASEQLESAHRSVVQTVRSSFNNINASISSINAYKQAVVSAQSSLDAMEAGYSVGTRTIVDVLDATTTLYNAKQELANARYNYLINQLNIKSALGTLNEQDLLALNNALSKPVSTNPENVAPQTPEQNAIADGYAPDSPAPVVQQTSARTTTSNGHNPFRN
From the text: as §2, §1, §3

[5] = target: H33342 efflux in E. coli AG100 (AcrAB-TolC) (Escherichia coli, UniProt P31224); test: Hoechst 33342 efflux assay, AG100; format: cell-based
Sequence of H33342 efflux in E. coli AG100 (AcrAB-TolC) (P31224 whole entry): as the sequence (P31224 whole entry) above
Sequence of H33342 efflux in E. coli AG100 (AcrAB-TolC) (P0AE06 25-397, further chain): as the sequence (P0AE06 25-397, further chain) above
Sequence of H33342 efflux in E. coli AG100 (AcrAB-TolC) (P02930 23-493, further chain): as the sequence (P02930 23-493, further chain) above
From the text: To truly be considered an efflux pump inhibitor (EPI), the compound must increase the level of accumulation and decrease the level of extrusion of efflux pump substrates. The fluorescent DNA-binding dye Hoechst 33342 (H33342) a known substrate for RND pumps, is easily detected in the cell, can freely permeate the outer membrane, and can act as a reporter, all allowing for quantification of transport across living cells. Efflux-competent cells extrude H33342 and accumulate dye at a relatively slow rate, resulting in low levels of background fluorescence. Conversely, efflux-defective cells (e.g., presence of EPI) accumulate intracellular levels of H33342 at a higher rate, resulting in fluorescence retention. Wild-type E. coli K-12 strain, AG100, and AG100A, the ΔacrAB mutant, a generous gift from Dr. M. Viveiros (Universidad Nova de Lisboa, Portugal), were used in accumulation and efflux assays. […] All experiments were performed in duplicate. Heat-inactivated bacteria were used as a positive control to assess maximal dye accumulation.

[6] = system: murine lymphocytic leukemia cells; details: cited from earlier work

Structure (SMILES)	EPI activity of authentic standard [1]	effect on H33342 fluorescence (accumulation) [2]	effect on H33342 fluorescence (accumulation) ([2]; listed as 3,4-Dibromopyrrole-2,5-dione)	antifungal activity (fungi)	interaction by fractional inhibitory concentration index (FICI) ([3]; all antibiotics tested with the exception of piperacillin)	antibacterial activity of compound alone, concentration ([3]; all three E. coli strains overexpressing efflux pumps)	concentration equal to or more effective than PAβN (15.6 μg/mL) in causing H33342 accumulation [4]	intracellular H33342 fluorescence (accumulation) [4]	IC50 [5]	most dilute concentration with significant (p<0.05) H33342 efflux inhibition vs solvent controls [5]	inhibition of H33342 efflux vs control wells ([5]; 0.06-64 μg/mL, glucose, 37° C.)	cytotoxicity [6]
Brc1[nH]c(Br)c(Br)c1Br [2,3,4,5-tetrabromopyrrole]	not to be responsible for the EPI activity	–	–	–	–	–	–	–	–	–	–	–
O=C1NC(=O)C(Br)=C1Br [3,4-dibromopyrrole-2,5-dione]	–	no effect	not	modest antifungal activity	synergistic (a FIC of <0.5 is synergistic and indicative of the presence of an efflux pump inhibitor (EPI))	> 100 µg/mL	≥ 1 µg/mL	dose-dependent increase; also recorded: increased	3.1 µM and 3 µM	0.06 µg/mL	near-complete inhibition	cytotoxicity
